Measured values reported in US20120291148A1, “TRANSGENIC PLANTS WITH ENHANCED CHARACTERISTICS” (Miami University, priority 2007, published 2012).
Where two headings read alike, the source gives them in different places.

Legend:
[1] = tested on: Arabidopsis seedlings (root growth); assay: Seedling growth on MS plates with exogenous metabolites; assay type: in vivo, Arabidopsis thaliana; settings: for sensitivity of AtETHE256-OE plants compared with wild-type plants: 0 mM to 2 mM metabolite on MS plates; for inhibition at 1500 µM: Arabidopsis thaliana, 168 h, 1.5 mM valine, 7 days of growth
Protocol: Studies in Arabidopsis thaliana Heyhn were performed on the Wassilewskija (WS) ecotype. Seeds were vernalized at 4° C. for 48 hours prior to being placed in a growth chamber. For measurement of toxicity and germination rates, seeds were surfaced sterilized with 70% ethanol for 30 seconds followed by 10% bleach for 30 minutes, rinsed three times with sterile deionized water and plated on half strength Murashige and Skoog (MS) plates solidified with 0.6% Gelrite and supplemented with 1.5% sucrose, pH 6.0. Plates were vernalized for four days at 4° C. and then placed in a controlled growth chamber at 23° C. on a 16:8 light/dark cycle.
Wild-type Arabidopsis (Ws), AtETHE1256-OE, and AtETHE1294-OE seeds were sown onto half-strength MS plates with 0 mM to 2 mM valine, propionate, ethylmalonic acid, butyric acid, or crotonic acid (all purchased from Sigma). Neutralized, filter-sterilized metabolites were added after the medium was autoclaved. Once toxicity levels for wild-type seeds were obtained, wild-type, AtETHE1256-OE, and AtETHE1294-OE seeds were plated together on the same plates. Root lengths and cotyledon growth from 100 plants per stress were measured and compared after 7 days of growth.

[2] = tested on: AtETHE1 transcript levels; assay: RT-PCR of AtETHE1 transcript levels under abiotic stress (Example 5); assay type: in vivo, Arabidopsis Columbia; settings: 10 μM ABA 3 hours; 150 mM NaCl or 300 mM Mannitol 24 hours
Protocol: Stress studies were performed on wild-type Arabidopsis Columbia plants grown hydroponically. Seeds were germinated on Rockwool (GrodanHP, Agro Dynamics Inc., East Brunswick, N.J., USA) suspended above Hoagland's solution (Cowgilland & Milazzo, (1989) The Culturing and Testing of Two Species of Duckweed. In W J Adams, G A Chapman, eds, Aquatic Toxicology and Hazard Assessment Vol 12. American Society for Testing and Materials, Philadelphia, Pa., pp 379-391) and grown in a growth chamber maintained at 23° C. with 16 hour light, 8 hour dark cycles. Plants stressed with abscisic acid (ABA), were grown hydroponically for 7 days and then stressed for 3 hours with 10 μM ABA. Plants were grown hydroponically for 18 days prior to treatment with either 150 mM NaCl or 300 mM Mannitol for 24 hours.
AtETHE1 RNA levels were determined by RT-PCR on total RNA (1 μg) isolated from cotyledon, root, stem, leaf, silique, and bud, and seedlings subjected to abiotic stresses. AtETHE1 cDNA was synthesized using a Thermoscript RT-PCR kit, followed by 25 cycles of PCR using the primer pair 2-3-5′ and 2-3-2. ACT8 was used as a control (An, et al., (1996) Plant J 10: 107-121).

[3] = tested on: AtETHE1 expression; assay: RT-PCR of AtETHE1 mRNA in hydroponic plants under abiotic stress (Example 4); assay type: in vivo, Arabidopsis Columbia; settings: 10 uM ABA 3 hours; 150 mM NaCl 12 hours (roots); 300 mM Mannitol 24 hours
Protocol: Stress studies were performed on Wild-type Arabidopsis Columbia grown hydroponically. Seeds were germinated on Rockwool (GrodanHP, Agro Dynamics Inc., East Brunswick, N.J., USA) suspended above Hoagland's solution and grown in a growth chamber maintained at 23° C. and 16 hour light, 8 hour dark cycles. For the plants stressed with abscisic acid (ABA), seedlings were grown hydroponically for 7 days and then stressed for 3 hours with 10 uM ABA. Plants were grown hydroponically for 18 days for stresses with NaCl and Mannitol. Plants were either stressed with 150 mM NaCl for 12 hours or stressed for 24 hours with 300 mM Mannitol. Plant material, roots only for NaCl stress, was immediately ground in liquid N2 and stored in the −80° C. until needed for RNA isolation.
AtETHE1 RNA levels were determined using RT-PCR on total RNA isolated from either whole plants (ABA, Mannitol treated) or from the roots (NaCl treated). […] ACT8 was used as a control.

[4] = target: T1, AtETHE1 (Arabidopsis thaliana, UniProt Q9C8L4, S50M); assay: Inhibition of AtETHE1 p-nitrophenyl acetate hydrolysis by metal chelator; assay type: biochemical; settings: presence of metal chelator
T1 construct: made in house
Protocol: (§1) Enzymatic assays were conducted at 25° C. in 10 mM MOPS, pH 7.2, on a Cary IE UV-Vis spectrophotometer. A series of thioesters of glutathione were synthesized as previously described (L. Uotila, Meth. Enzymol. 77 (1981) 424-430), and all other substrates were purchased commercially. The hydrolysis of S-D-lactoylglutathione (Sigma), S-D-acetylglutathione, S-D-acetoacetylglutathione, S-D-formylglutathione, S-D-glyocosylgutathione or S-D-pyruvylglutathione was monitored at 240 nm. S-D-mandeloylglutathione hydrolysis was monitored at 263 nm (L. Uotila, Meth. Enzymol. 77 (1981) 424-430). Hydrolysis of p-nitrophenyl phosphate (Sigma), p-nitrophenyl sulfate (Sigma), and p-nitrophenyl acetate (Sigma) was monitored at 400 nm (see R. A. Anderson, et al., Proc. Natl. Acad. Sci. 72 (1975) 2989-2993; J. J. Brandt, et al., Anal. Biochem. 272 (1999) 94-99; J. M. Armstrong, et al., J. Biol. Chem. 241 (1966) 5137-5149). The hydrolysis of L-alanine-p-nitroanilide (Sigma) was measured at 404 nm (J. J. Brandt, et al., Anal. Biochem. 272 (1999) 94-99). Ala-ala-ala-p-nitroanilide (Sigma) and y-L-Glu-p-nitroanalide (Sigma) hydrolysis was monitored at 410 nm. Hydrolysis of benzoylglycyl-L-phenylalanine was monitored at 254 nm (J. F. Sabastian, et al., Can. J. Biochem. 56 (1978) 329-333). […]

[5] = target: T1, AtETHE1; assay: Steady-state kinetic test of candidate substrates with AtETHE1; assay type: biochemical; settings: steady-state kinetic studies after screening hit
Protocol: as §1

[6] = tested on: plants; assay: Preliminary studies of methylmalonate toxicity in plants; assay type: in vivo
[7] = recombinant rat carbonic anhydrase III, G. Kim et al. 2000; cited from earlier work
[8] = Steady-state hydrolysis of p-nitrophenyl acetate by purified AtETHE1; assay type: biochemical, Arabidopsis thaliana; settings: substrate p-nitrophenyl acetate; 25° C., 10 mM MOPS pH 7.2
Protocol: as §1

[9] = Thioesterase activity of AtETHE1 with SLG and other glutathione thioesters; assay type: biochemical, Arabidopsis thaliana
Protocol: as §1

CCCC(=O)O [butyric acid]
sensitivity of AtETHE256-OE plants compared with wild-type plants [1]: same sensitivity

OC[C@@H](O)[C@@H](O)[C@H](O)[C@H](O)CO [mannitol]
increase in AtETHE1 transcript levels [2]: approximately 2.5 fold
fold increase of AtETHE1 expression versus control [3]: 2.6 fold

[Cl-].[Na+] [NaCl]
increase in AtETHE1 transcript levels [2]: approximately two fold increases
fold increase of AtETHE1 expression versus control [3]: 2.1 fold

CCC(C(=O)O)C(=O)O [ethylmalonic acid]
sensitivity of AtETHE256-OE plants compared with wild-type plants [1]: same sensitivity

c1cnc2c(c1)ccc1cccnc12 [1,10-o-phenanthroline]
effect on AtETHE1 activity towards p-nitrophenyl acetate [4]: inhibited

C/C=C/C(=O)O [crotonic acid]
sensitivity of AtETHE256-OE plants compared with wild-type plants [1]: same sensitivity

CC1=CC(=O)CC(C)(C)[C@@]1(O)/C=C/C(C)=C\C(=O)O [ABA, abscisic acid]
increase in AtETHE1 transcript levels [2]: approximately two fold increases
fold increase of AtETHE1 expression versus control [3]: 1.8 fold

CCC(=O)O [propionate]
sensitivity of AtETHE256-OE plants compared with wild-type plants [1]: same sensitivity

N[C@@H](CCC(=O)Nc1ccc([N+](=O)[O-])cc1)C(=O)O [Glu-pNA, y-L-Glu-p-nitroanalide]
substrate for AtETHE1 [5]: not to be substrates

Ala-ala-ala-p-nitroanilide [Ala-Ala-Ala-pNA]
substrate for AtETHE1 [5]: not to be substrates

CC(C(=O)O)C(=O)O [methylmalonate]
toxicity in plants [6]: toxic in plants

CC(C)[C@H](N)C(=O)O [valine]
inhibition at 1500 µM ([1]; AtETHE1256-OE plants, read-out: inhibition of growth): ~40%
inhibition at 1500 µM ([1]; wild-type plants, read-out: inhibition of root growth): ~80%

B1: rat carbonic anhydrase III: recombinant rat carbonic anhydrase III, literature comparator for esterase activity (protein, UniProt P14141 2-260, looked up)
Carbonic anhydrase 3: AKEWGYASHNGPEHWHELYPIAKGDNQSPIELHTKDIRHDPSLQPWSVSYDPGSAKTILNNGKTCRVVFDDTFDRSMLRGGPLSGPYRLRQFHLHWGSSDDHGSEHTVDGVKYAAELHLVHWNPKYNTFGEALKQPDGIAVVGIFLKIGREKGEFQILLDALDKIKTKGKEAPFNHFDPSCLFPACRDYWTYHGSFTTPPCEECIVWLLLKEPMTVSSDQMAKLRSLFASAENEPPVPLVGNWRPPQPIKGRVVRASFK
esterase activity with p-nitrophenyl acetate [7]: 25.8 nmols/min/mg

B2: AtETHE1: Arabidopsis thaliana ETHE1 polypeptide, recombinant, purified from E. coli; mononuclear Fe(II) β-lactamase fold protein (protein)
chain: MKLLFRQLFENESSTFTYLLADVSHPDKPALLIDPVDKTVDRDLKLIDELGLKLIYAMNTHVHADHVTGTGLLKTKLPGVKSVISKASGSKADLFLEPGDKVSIGDIYLEVRATPGHTAGCVTYVTGEGADQPQPRMAFTGDAVLIRGCGRTDFQEGSSDQLYESVHSQIFTLPKDTLIYPAHDYKGFEVSTVGEEMQHNPRLTKDKETFKTIMSNLNLSYPKMIDVAVPANMVCGLQDVPSQAN
activity against p-NPA [8]: 2.02±0.46 nmols/min/mg of enzyme
enzymatic activity towards SLG ([9]; Example 5, over-expressed purified AtETHE1): no enzymatic activity
hydrolysis of glutathione thioesters ([9]; as-isolated and after incubation with excess iron, SLG and other thioester derivatives): did not hydrolyze any of the glutathione thioesters
